# Data: patent US6054475A, “Substituted dihydrobenzofuran-based phosphodiesterase 4 inhibitors useful for treating airway disorders” (Byk Gulden Lomberg Chemische Fabrik GmbH, priority 1996, dated 2000)
# Tested on: PDE4
# Assay: Inhibition of PDE4 activity (method of Bauer and Schwabe, adapted to microtiter plates)
# Format: biochemical
# Settings: Table A; inhibitory concentrations as -log IC50 (mol/l)
# Protocol: The activity test was carried out according to the method of Bauer and Schwabe, which was adapted to microtiter plates (Naunyn-Schmiedeberg's Arch. Pharmacol. 311, 193-198, 1980). The PDE reaction takes place here in the first step. In a second step, the resulting 5'-nucleotide is cleaved to give the uncharged nucleoside by a 5'-nucleotidase of the snake venom from Crotalus atrox. In the third step, the nucleoside is separated from the remaining charged substrate on ion exchange columns. Using 2 ml of 30 mM ammonium formate (pH 6.0), the columns are eluted directly into minivials to which is additionally added 2 ml of scintillator fluid for counting.
row,Structure (SMILES),-log IC50 (inhibition of PDE4 activity)
1,"COc1ccc([C@]2(C#N)CC[C@@H](C(=O)O)CC2)c2c1OC1(CCOCC1)C2 [Compound 4, cis-4-Cyano-4-(2,3-dihydro-7-methoxybenzofuran-2-spiro-4'-tetrahydropyran-4-yl)cyclohexane-1-carboxylic acid]",7.69
2,"COc1ccc(C2(OC)CCOCC2)c2c1OC1(CCCC1)C2 [Compound 13, 4-a-Methoxy-4-e-(2,3-dihydro-7-methoxybenzofuran-2-spiro-1'-cyclopentan-4-yl)tetrahydropyran]",7.41
3,"COc1ccc([C@]2(C#N)CC[C@@H](C(=O)NO)CC2)c2c1OC1(CCCC1)C2 [Compound 7, cis-4-Cyano-4-(2,3-dihydro-7-methoxybenzofuran-2-spiro-1'-cyclopentan-4-yl)cyclohexane-1-carboxylic acid hydroxylamide]",7.52
4,"COc1ccc(C2(C#N)CCOCC2)c2c1OC1(CCCC1)C2 [Compound 9, 4-a-Cyano-4-e-(2,3-dihydro-7-methoxybenzofuran-2-spiro-1'-cyclopentan-4-yl)tetrahydropyran]",8.26
5,"COc1ccc([C@]2(C#N)CC[C@@H](C(N)=O)CC2)c2c1OC1(CCOCC1)C2 [Compound 6, cis-4-Cyano-4-(2,3-dihydro-7-methoxybenzofuran-2-spiro-4'-tetrahydropyran-4-yl)cyclohexane-1-carboxamide]",7.65
6,"COc1ccc(C2(C#N)CCNC(=O)CC2)c2c1OC1(CCCC1)C2 (centres unmarked) [Compound 16, 7-Oxo-4-cyano-4-(2,3-dihydro-7-methoxybenzofuran-2-spiro-1'-cyclopentan-4-yl)hexahydroazepine]",7.96
7,"COc1ccc([C@]2(C#N)CC[C@@H](OP(=O)(O)Oc3ccccc3)CC2)c2c1OC1(CCCC1)C2 [Compound 8, cis-4-Cyano-4-(2,3-dihydro-7-methoxybenzofuran-2-spiro-1'-cyclopentan-4-yl)cyclohexyl-1-phenyl phosphate]",7.44
8,"COc1ccc(C2(C#N)CCC(=NO)CC2)c2c1OC1(CCCC1)C2 (centres unmarked) [Compound 14, 4-a-Cyano-4-e-(2,3-dihydro-7-methoxybenzofuran-2-spiro-1'-cyclopentan-4-yl)cyclohexan-1-one oxime]",7.78
9,"COc1ccc(C2(C#N)CCS(=O)(=O)CC2)c2c1OC1(CCCC1)C2 [Compound 11, 1,1-Dioxo-4-a-cyano-4-e-(2,3-dihydro-7-methoxybenzofuran-2-spiro-1'-cyclopentan-4-yl)tetrahydro-1-thiopyran]",7.72
10,"COc1ccc([C@]2(C#N)CC[C@@H](C(=O)O)CC2)c2c1OC1(CCCC1)C2 [Compound 2.1, cis-4-Cyano-4-(2,3-dihydro-7-methoxybenzofuran-2-spiro-1'-cyclopentan-4-yl)cyclohexane-1-carboxylic acid]",8.22
11,"COc1ccc([C@]2(C#N)CC[C@@H](C(N)=O)CC2)c2c1OC1(CCCC1)C2 [Compound 5, cis-4-Cyano-4-(2,3-dihydro-7-methoxybenzofuran-2-spiro-1'-cyclopentan-4-yl)cyclohexane-1-carboxamide]",8.31
